# According to ChEMBL document CHEMBL5375952, “Discovery of Novel 8-Hydroxyquinoline Derivatives with Potent In Vitro and In Vivo Antifungal Activity” (J Med Chem, 2023):
# Activity calls are given as the source filed them. The calls are words filed in the database; no cut-off is given here.
# Tests used:
# Candida albicans [1] = test: Antifungal activity against Candida albicans SC5314 assessed as fungal growth inhibition incubated for 48 hrs in presence of Cu2+ by broth microdilution method (reference value: […] ug/ml); assay type: functional
# [2] = Toxicity in C57BL/6 mouse infected with Candida albicans SC5314 assessed as animal death at 0.25 mg/kg, ip measured after 7 days; assay type: organism-based; details: in vivo, 168 h, time 7 day
# Candida albicans [3] = test: Synergistic inhibition of biofilm formation of Candida albicans SC5314 incubated for 24 hrs in presence of FLC by XTT assay; assay type: functional, organism-based; details: dose <= 16.0 µg/ml
# Candida albicans [4] = test: Synergistic antifungal activity against FLC-resistant Candida albicans 512644 assessed as MIC of FLC incubated for 48 hrs by broth microdilution method; assay type: functional
# Candida albicans [5] = test: Synergistic antifungal activity against FLC-resistant Candida albicans 304103 assessed as MIC of FLC incubated for 48 hrs by broth microdilution method; assay type: functional
# Candida albicans [6] = test: Synergistic antifungal activity against FLC-resistant Candida albicans 605141 assessed as fractional inhibitory concentration index incubated for 48 hrs in presence of FLC by broth microdilution method; assay type: functional
# [7] = MRT (0 to t) in Sprague-Dawley rat at 5 mg/kg, po by LC-MS/MS analysis; assay type: ADME, organism-based; details: in vivo
# Candida albicans [8] = test: Synergistic antifungal activity against FLC-resistant Candida albicans 12 assessed as MIC of FLC incubated for 48 hrs by broth microdilution method; assay type: functional
# Candida albicans [9] = test: Synergistic antifungal activity against FLC-resistant Candida albicans 512644 assessed as fractional inhibitory concentration index incubated for 48 hrs in presence of FLC by broth microdilution method; assay type: functional
# Candida albicans [10] = test: Synergistic antifungal activity against FLC-resistant Candida albicans 540 assessed as fractional inhibitory concentration index incubated for 48 hrs in presence of FLC by broth microdilution method; assay type: functional
# Candida albicans [11] = test: Synergistic antifungal activity against FLC-resistant Candida albicans 512681 assessed as fungal growth inhibition incubated for 48 hrs in presence of FLC by broth microdilution method; assay type: functional
# [12] = AUC (0 to infinity) in Sprague-Dawley rat at 2 mg/kg, iv by LC-MS/MS analysis; assay type: ADME, organism-based; design: dose 2 mg/kg, route iv; details: in vivo
# Candida albicans [13] = test: Inhibition of hypha formation in Candida albicans SC5314 at 8 to 16 ug/ml incubated for 3 hrs by inverted phase contrast microscopy; assay type: functional, organism-based; details: dose 8-16 µg/ml
# Candida albicans [14] = test: Synergistic antifungal activity against FLC-resistant Candida albicans 710452 assessed as MIC of FLC incubated for 48 hrs by broth microdilution method; assay type: functional
# Candida albicans [15] = test: Synergistic antifungal activity against FLC-resistant Candida albicans 710554 assessed as fractional inhibitory concentration index incubated for 48 hrs in presence of FLC by broth microdilution method; assay type: functional
# Candida albicans [16] = test: Synergistic antifungal activity against FLC-resistant Candida albicans 646 assessed as fractional inhibitory concentration index incubated for 48 hrs in presence of FLC by broth microdilution method; assay type: functional
# Candida albicans [17] = test: Synergistic antifungal activity against FLC-resistant Candida albicans 710419 assessed as fractional inhibitory concentration index incubated for 48 hrs in presence of FLC by broth microdilution method; assay type: functional
# Candida albicans [18] = test: Synergistic antifungal activity against FLC-resistant Candida albicans 305 assessed as fractional inhibitory concentration index incubated for 48 hrs in presence of FLC by broth microdilution method; assay type: functional
# Candida albicans [19] = test: Synergistic antifungal activity against FLC-resistant Candida albicans 12 assessed as fractional inhibitory concentration index incubated for 48 hrs in presence of FLC by broth microdilution method; assay type: functional
# Candida albicans [20] = test: Synergistic antifungal activity against FLC-resistant Candida albicans 710452 assessed as fractional inhibitory concentration index incubated for 48 hrs in presence of FLC by broth microdilution method; assay type: functional
# Candida albicans [21] = test: Synergistic antifungal activity against FLC-resistant Candida albicans 11 assessed as fungal growth inhibition incubated for 48 hrs in presence of FLC by broth microdilution method; assay type: functional
# Candida albicans [22] = test: Synergistic antifungal activity against FLC-resistant Candida albicans 14 assessed as fungal growth inhibition incubated for 48 hrs in presence of FLC by broth microdilution method; assay type: functional
# Candida albicans [23] = test: Synergistic antifungal activity against FLC-resistant Candida albicans 304103 assessed as fungal growth inhibition incubated for 48 hrs in presence of FLC by broth microdilution method; assay type: functional
# Candida albicans [24] = test: Synergistic antifungal activity against FLC-resistant Candida albicans 249 assessed as fungal growth inhibition incubated for 48 hrs in presence of FLC by broth microdilution method; assay type: functional
# Candida albicans [25] = test: Synergistic antifungal activity against FLC-resistant Candida albicans 14 assessed as fractional inhibitory concentration index incubated for 48 hrs in presence of FLC by broth microdilution method; assay type: functional
# Candida albicans [26] = test: Synergistic antifungal activity against FLC-resistant Candida albicans 12 assessed as fungal growth inhibition incubated for 48 hrs in presence of FLC by broth microdilution method; assay type: functional
# Candida albicans [27] = test: Synergistic antifungal activity against FLC-resistant Candida albicans 819 assessed as fungal growth inhibition incubated for 48 hrs in presence of FLC by broth microdilution method; assay type: functional
# Candida albicans [28] = test: Synergistic antifungal activity against FLC-resistant Candida albicans 17 assessed as fungal growth inhibition incubated for 48 hrs in presence of FLC by broth microdilution method; assay type: functional
# [29] = Toxicity in C57BL/6 mouse infected with Candida albicans SC5314 assessed as animal survival at 2 mg/kg, ip measured after 20 days relative to control; assay type: organism-based; details: in vivo, 480 h, time 20 day
# Candida albicans [30] = test: Antifungal activity against Candida albicans SC5314 infected in C57BL/6 mouse assessed as mean fungal burden at 2 mg/kg, ip measured after 46 hrs by plate count method (reference value: 6.902 log10CFU/ml); assay type: functional
# Candida albicans [31] = test: Synergistic antifungal activity against FLC-resistant Candida albicans 379 assessed as fractional inhibitory concentration index incubated for 48 hrs in presence of FLC by broth microdilution method; assay type: functional
# Candida albicans [32] = test: Synergistic antifungal activity against FLC-resistant Candida albicans 646 assessed as MIC of FLC incubated for 48 hrs by broth microdilution method; assay type: functional
# Candida albicans [33] = test: Synergistic antifungal activity against FLC-resistant Candida albicans 540 assessed as fungal growth inhibition incubated for 48 hrs in presence of FLC by broth microdilution method; assay type: functional
# Candida albicans [34] = test: Synergistic antifungal activity against FLC-resistant Candida albicans 710554 assessed as MIC of FLC incubated for 48 hrs by broth microdilution method; assay type: functional
# Candida albicans [35] = test: Synergistic antifungal activity against FLC-resistant Candida albicans 395 assessed as fractional inhibitory concentration index incubated for 48 hrs in presence of FLC by broth microdilution method; assay type: functional
# Candida albicans [36] = test: Synergistic antifungal activity against FLC-resistant Candida albicans 953 assessed as fractional inhibitory concentration index incubated for 48 hrs in presence of FLC by broth microdilution method; assay type: functional
# Candida albicans [37] = test: Synergistic antifungal activity against FLC-resistant Candida albicans 11 assessed as fractional inhibitory concentration index incubated for 48 hrs in presence of FLC by broth microdilution method; assay type: functional
# Candida albicans [38] = test: Antifungal activity against Candida albicans SC5314 assessed as fungal growth inhibition incubated for 48 hrs in presence of Cu2+ by broth microdilution method (reference value: 0.0625 ug/ml); assay type: functional
# Candida albicans [39] = test: Synergistic antifungal activity against Candida albicans 0304103 assessed as fungal growth inhibition at 4 ug/ml incubated for 48 hrs in presence of FLC by time-kill assay; assay type: functional, organism-based; details: dose 4.0 µg/ml
smiles,measurement,setting,value
Oc1c(I)cc(Cl)c2cccnc12 [CLIOQUINOL],MIC,Candida albicans [1],128 µg/mL
OC(Cn1cncn1)(Cn1cncn1)c1ccc(F)cc1F [FLUCONAZOLE],Activity,[2],Toxic
CCN(CC)c1ccc(C(NC(=O)C(C)C)c2ccc3cccnc3c2O)cc1 (centres undefined),inhibition,Candida albicans [3],Dose-Dependent Effect
same,MIC,Candida albicans [4],2 µg/mL
same,MIC,Candida albicans [5],0.5 µg/mL
same,fractional inhibitory concentration index (FICI),Candida albicans [6],0.063
same,MRT last,[7],48.8 min
same,MIC,Candida albicans [8],1 µg/mL
same,fractional inhibitory concentration index (FICI),Candida albicans [9],0.047
same,fractional inhibitory concentration index (FICI),Candida albicans [10],0.064
same,MIC,Candida albicans [11],0.031 µg/mL
same,AUC(0-inf),[12],1110 ng·h/mL
same,inhibition,Candida albicans [13],Active
same,MIC,Candida albicans [14],0.25 µg/mL
same,fractional inhibitory concentration index (FICI),Candida albicans [15],0.066
same,fractional inhibitory concentration index (FICI),Candida albicans [16],0.133
same,fractional inhibitory concentration index (FICI),Candida albicans [17],0.064
same,fractional inhibitory concentration index (FICI),Candida albicans [18],0.039
same,fractional inhibitory concentration index (FICI),Candida albicans [19],0.062
same,fractional inhibitory concentration index (FICI),Candida albicans [20],0.127
same,MIC,Candida albicans [21],0.008 µg/mL
same,MIC,Candida albicans [22],0.016 µg/mL
same,MIC,Candida albicans [23],0.008 µg/mL
same,MIC,Candida albicans [24],0.008 µg/mL
same,fractional inhibitory concentration index (FICI),Candida albicans [25],0.133
same,MIC,Candida albicans [26],0.008 µg/mL
same,MIC,Candida albicans [27],0.016 µg/mL
same,MIC,Candida albicans [28],0.016 µg/mL
same,Survival,[29],20%
same,Activity,Candida albicans [30],6.318 log10CFU/ml
same,fractional inhibitory concentration index (FICI),Candida albicans [31],0.039
same,MIC,Candida albicans [32],1 µg/mL
same,MIC,Candida albicans [33],0.016 µg/mL
same,MIC,Candida albicans [34],0.5 µg/mL
same,fractional inhibitory concentration index (FICI),Candida albicans [35],0.133
same,fractional inhibitory concentration index (FICI),Candida albicans [36],0.032
same,fractional inhibitory concentration index (FICI),Candida albicans [37],0.039
same,MIC,Candida albicans [38],128 µg/mL
same,growth inhibition (GI),Candida albicans [39],Active
